# Legend:
# cynomolgus monkeys = test: Monkey 39-week oral gavage toxicity study; assay type: in vivo, cynomolgus monkey; settings: for Histopathological Liver Findings / ALT / AST / GLDH: monkey 39-week; for ALT / AST / GLDH: mean (SD)
# Description: TAK-994 performed well in tiered safety screening assays, with wide margins between in vitro IC50 and the predicted efficacious exposures (Table 1). […] Based on the safety profiles observed in these animal studies, TAK-994 progressed into phase I clinical trials.
# ^bAll dose levels had 4 animals per sex. No statistical difference was observed between the TAK-994 and control groups.
# Hepatocyte spheroids = test: Hepatocyte spheroid (monoculture, no nonparenchymal cells) cytotoxicity, cellular ATP; assay type: cell-based, human
# Description: Toxicology of TAK-994 was assessed using lnSphero’s 3D lnSight Human Liver models, based on N-acetyl-L-cysteine causality assay, glutathione depletion assay, and lipopolysaccharide (LPS)-sensitization assay. Hepatotoxicity was assessed in 7- and 14-day mono and co-culture models, in which cells were exposed to TAK-994 (0.1, 0.3, 1, 3.16, 10, 31.6, or 100 μM) […].
# The test system was Human 3D InSight Liver Models, production ID hLiMT_589, cryopreserved primary human hepatocytes (Lot IPDH_18; single donor) in monoculture or in co-culture with cryopreserved primary human nonparenchymal cells (Lot IPHN_17; single donor). Human liver microtissues are composed of roughly 1000 hepatocytes and 1000 non-parenchymal live cells. Non-parenchymal liver cell fractions are expected to be composed of Kupffer cells and liver endothelial cells however, these were not identified.
# Mono and co-culture model cells were exposed to TAK-994 (0.1, 0.3, 1, 3.16, 10, 31.6, or 100 μM in 0.5% DMSO) for 7 days (TAK-994 administered on Days 0 and 4) or 14 days (TAK-994 administered on Days 0, 5, and 9). Six replicates were tested for each condition. The vehicle control was 0.5% DMSO, and the positive control was chlorpromazine (0.1, 0.3, 1, 3.16, 10, 31.6, or 100 μM in DMSO). Cellular ATP content was measured in the cell lysate on Days 7 or 14 of treatment. LDH release was measured in the cell supernatant on Days 4 and 7 or on Days 5, 9, and 14 and normalized to lysed controls.
# Intracellular ATP content in model lysates was measured with the CellTiter-Glo® 2.0 Cell Viability Assay (Catalogue No. G9243, Promega). The Bioluminescent LDH Release Toxicity Assay Kit (Catalogue No. J2380, Promega) was used to assess extracellular LDH release and normalized to lysed controls. ATP, LDH, GSH, and triglycerides were measured according to internal technical operating procedures.
# [1] = Plasma exposure in NT1 patients; assay type: in vivo, human
# patients with narcolepsy [2] = system: patients with narcolepsy; set-up: method as in Dauvilliers et al. 2023; settings: 30, 90 or 180 mg twice daily, 8 wk; ref Dauvilliers et al. 2023; cited from earlier work
# [3] = system: PXB cells (human hepatocytes); test: CLF efflux (bile transport) assay in PXB cells; assay type: cell-based; settings: n = 3
# Description: Cholyl-lysyl-fluorescein (CLF) efflux for TAK-994 was assessed using human hepatocytes implanted into PXB-mice. PXB cells were exposed to TAK-994 (0.3, 1, 3, 10, 30, and 100 μM) or vehicle for 2 h and then incubated for an additional 30 min with TAK-994 or vehicle containing 5 μM CLF. CLF efflux and its inhibition by TAK-994 were assessed by fluorescence analysis.
# PXB hepatocytes were generated by implanting human hepatocytes into PXB-mice®. These hepatocytes were isolated by collagenase perfusion at PhoenixBio Co Ltd. Freshly isolated hepatocytes were maintained in T-75 flasks and detached using 0.25% trypsin/ethylenediaminetetraacetic acid (EDTA) incubation for 20 minutes (total) using the following procedure. A flash wash was performed with cold trypsin/EDTA, followed by a 5-minute incubation with cold trypsin/EDTA at 37°C, and finally a 15-minute incubation at 37°C with trypsin/EDTA. […]
# On Day 8, PXB cells were exposed to TAK-994 (0.3, 1, 3, 10, 30, and 100 μM) or 0.1% DMSO for 2 hours and then incubated for an additional 30 minutes with TAK-994 or […] containing 5 μM CLF. […] The CLF efflux and its inhibition by TAK-994 was quantified using Developer toolbox software. […] The fluorescent intensities of bile canalicular regions were measured to determine the IC50 for TAK-994 CLF efflux inhibition. […]
# patients with narcolepsy [4] = settings: in vivo
structure (smiles),measurement,setting,value
CC(C)(O)C(=O)N1CC[C@H](NS(C)(=O)=O)[C@@H]1Cc1cccc(-c2cc(F)cc(F)c2)c1F.CC(C)(O)C(=O)N1CC[C@H](NS(C)(=O)=O)[C@@H]1Cc1cccc(-c2cc(F)cc(F)c2)c1F.O.O.O [TAK-994],"adverse liver findings, chronic dose toxicity study","cynomolgus monkeys; cynomolgus monkeys, 9-mo, up to the high dose tested of 1,000 mg/kg",no adverse liver findings
same,Histopathological Liver Findings,"cynomolgus monkeys; female, 60 mg/kg",No adverse findings
same,ALT,"cynomolgus monkeys; female, 60 mg/kg",35 (9) IU/L
same,AST,"cynomolgus monkeys; female, 60 mg/kg",31 (6) IU/L
same,GLDH,"cynomolgus monkeys; female, 60 mg/kg",11 (2) IU/L
same,Histopathological Liver Findings,"cynomolgus monkeys; female, 200 mg/kg",No adverse findings
same,ALT,"cynomolgus monkeys; female, 200 mg/kg",28 (9) IU/L
same,AST,"cynomolgus monkeys; female, 200 mg/kg",27 (12) IU/L
same,GLDH,"cynomolgus monkeys; female, 200 mg/kg",11 (1) IU/L
same,Histopathological Liver Findings,"cynomolgus monkeys; female, 1000 mg/kg",No adverse findings
same,ALT,"cynomolgus monkeys; female, 1000 mg/kg",34 (10) IU/L
same,AST,"cynomolgus monkeys; female, 1000 mg/kg",24 (5) IU/L
same,GLDH,"cynomolgus monkeys; female, 1000 mg/kg",12 (1) IU/L
same,Histopathological Liver Findings,"cynomolgus monkeys; male, 60 mg/kg",No adverse findings
same,ALT,"cynomolgus monkeys; male, 60 mg/kg",42 (20) IU/L
same,AST,"cynomolgus monkeys; male, 60 mg/kg",30 (12) IU/L
same,GLDH,"cynomolgus monkeys; male, 60 mg/kg",12 (3) IU/L
same,Histopathological Liver Findings,"cynomolgus monkeys; male, 200 mg/kg",No adverse findings
same,ALT,"cynomolgus monkeys; male, 200 mg/kg",32 (2) IU/L
same,AST,"cynomolgus monkeys; male, 200 mg/kg",23 (7) IU/L
same,GLDH,"cynomolgus monkeys; male, 200 mg/kg",13 (1) IU/L
same,Histopathological Liver Findings,"cynomolgus monkeys; male, 1000 mg/kg",No adverse findings
same,ALT,"cynomolgus monkeys; male, 1000 mg/kg",33 (9) IU/L
same,AST,"cynomolgus monkeys; male, 1000 mg/kg",22 (4) IU/L
same,GLDH,"cynomolgus monkeys; male, 1000 mg/kg",13 (3) IU/L
same,loss of cellular ATP,"Hepatocyte spheroids; 100 µM TAK-994, absence of nonparenchymal cells",~50%
same,IC50,"Hepatocyte spheroids; cellular ATP, read-out: IC50, hepatocyte spheroids (Fig. 2B)",> 100 µM
same,"AUC24, ss in NT1 patients",[1]; 30 mg BID,"2,920 h*nM"
same,Cmax,[1]; 30 mg BID,408 nM
same,"AUC24, ss in NT1 patients",[1]; 90 mg BID,"8,870 h*nM"
same,Cmax,[1]; 90 mg BID,948 nM
same,"AUC24, ss in NT1 patients",[1]; 180 mg BID,"14,800 h*nM"
same,Cmax,[1]; 180 mg BID,1640 nM
same,mean wakefulness time in people with narcolepsy,patients with narcolepsy [2],effectively increased mean wakefulness time
same,IC50,[3],30 µM
same,onset of earliest Hy's Law case,patients with narcolepsy [4],50 days

# Source: paper PMC11939078, “TAK-994 mechanistic investigation into drug-induced liver injury” (Toxicological Sciences, 2025)
